Patent publication US11000033B2, “Ketone or oxime compound, and herbicide” (NISSAN CHEMICAL CORPORATION, priority 2014, dated 2021)

How the values were obtained:
Type in all cases: in vivo
Amaranthus retroflexus = test: Test Example 4: herbicidal effect by soil treatment (symbol N); settings: application herbicide amount 320 g/ha
Procedure, shortened: (§1)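 Seeds were sown in sterilized diluvial soil, covered with about 1.5 cm of soil, and the soil surface was sprayed with a water-diluted emulsion of the compound at a predetermined rate. Plants grew in a greenhouse at 25° C. to 30° C.; effects were scored visually 3 weeks after application.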

Abutilon theophrasti = test: Test Example 4: herbicidal effect by soil treatment (symbol M); settings: application herbicide amount 320 g/ha
Procedure, shortened: as §1

Digitaria ciliaris = test: Test Example 4: herbicidal effect by soil treatment (symbol F); settings: application herbicide amount 320 g/ha
Procedure, shortened: as §1

Monochoria vaginalis = test: Test Example 1: herbicidal activity, application before weed generation in submerged conditions (symbol C); settings: application herbicide amount 320 g/ha
Procedure, shortened: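 Scores run 0 to 5 by herbicidal ratio, with 5 meaning 90% or more and 0 meaning 5% or lower, read 3 weeks after treatment. Compound was applied as a diluted emulsion to the water surface of submerged alluvial-soil pots on the day weed seeds were sown.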

Leptochloa chinensis = test: Test Example 3: herbicidal effect by foliage application, Wagner pot (symbol D); settings: application herbicide amount 320 g/ha
Procedure, shortened: (§2)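 Foliar spray of water-diluted emulsion formulation at a predetermined herbicide amount onto 14-day-old plants in flooded alluvial soil (water depth 0.1–0.5 cm), greenhouse 25–30 °C; rice sown alongside. Scored 3 wk post-application on set criteria.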

corn = test: Test Example 4: effect on crop by soil treatment (symbol c); settings: application herbicide amount 320 g/ha
Procedure, shortened: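 Grown at 25° C. to 30° C. in a greenhouse, the crops came from seed sown spot-wise in sterilized diluvial soil under roughly 1.5 cm of covering soil.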

Cyperus difformis = test: Test Example 3: herbicidal effect by foliage application, Wagner pot (symbol E); settings: application herbicide amount 320 g/ha
Procedure, shortened: as §2

Lolium multiflorum Lam. = test: Test Example 5: herbicidal effect by foliage application, plastic box (symbol K); settings: 320 g/ha, 3 weeks after application
Procedure, shortened: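 Effect is rated 3 weeks after a foliar spray of water-diluted emulsion concentrate at a predetermined herbicide amount. Plants had grown 14 days in a 25° C. to 30° C. greenhouse from seed in sterilized diluvial soil.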

soybean = test: Test Example 4: effect on crop by soil treatment (symbol d); settings: application herbicide amount 320 g/ha
Procedure, shortened: (§3)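 Seeds were sown in spots on sterilized diluvial soil in a plastic box and covered with about 1.5 cm of soil. Plants were then grown in a greenhouse at 25° C. to 30° C.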

[1] = tested on: Echinochloa oryzacola Vasing.; test: Test Example 2: herbicidal activity, application during weed generation in submerged conditions (symbol A); settings: Table 23; application herbicide amount 320 g/ha; grade 0-5 by criteria of Test Example 1
Procedure, shortened: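 Paddy pot test, submerged (4 cm water), alluvial soil, mixed sowing; greenhouse 25–30° C. Emulsion formulation diluted to predetermined rate, applied onto floodwater at 1–2 leaf stage. Visual herbicidal rating at 3 wk post-treatment.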

beet = test: Test Example 4: effect on crop by soil treatment (symbol f); settings: application herbicide amount 320 g/ha
Procedure, shortened: as §3

CC(CC1CC(O)=C(c2c(C)cc(C)cc2C)C1=O)=NOCc1ccccc1F (stereo not shown) [1-026]
N (Amaranthus retroflexus) herbicidal effect grade (Amaranthus retroflexus): 0 (Herbicidal ratio of 5% or lower (almost no effect))
M (Abutilon theophrasti) herbicidal effect grade (Abutilon theophrasti): 0 (Herbicidal ratio of 5% or lower (almost no effect))
F (Digitaria ciliaris) herbicidal effect grade (Digitaria ciliaris): 5 (Herbicidal ratio of 90% or more (almost completely withered))
Herbicidal effect grade, C: Monochoria vaginalis (Monochoria vaginalis): 5 (Herbicidal ratio of 90% or more (almost completely withered))
herbicidal effect on D (Leptochloa chinensis), grade 0-5 (Leptochloa chinensis): 5 (Herbicidal ratio of 90% or more (almost completely withered))
c (corn) effect on crop grade (corn): 0 (Herbicidal ratio of 5% or lower (almost no effect))
herbicidal effect on E, grade 0-5 (Cyperus difformis): 5 (Herbicidal ratio of 90% or more (almost completely withered))
K: Lolium multiflorum Lam., herbicidal effect grade (Lolium multiflorum Lam.): 5 (Herbicidal ratio of 90% or more (almost completely withered))
d (soybean) effect on crop grade (soybean): 0 (Herbicidal ratio of 5% or lower (almost no effect))
Herbicidal effect grade, A: Echinochloa oryzacola Vasing. [1]: 5 (Herbicidal ratio of 90% or more (almost completely withered))

CON=C(C)CC1CC(OC(=O)C(C)(C)OC(C)=O)=C(c2c(C)cc(C)cc2C)C1=O (stereo not shown) [1-034]
N (Amaranthus retroflexus) herbicidal effect grade (Amaranthus retroflexus): 5 (Herbicidal ratio of 90% or more (almost completely withered))
M (Abutilon theophrasti) herbicidal effect grade (Abutilon theophrasti): 5 (Herbicidal ratio of 90% or more (almost completely withered))
F (Digitaria ciliaris) herbicidal effect grade (Digitaria ciliaris): 5 (Herbicidal ratio of 90% or more (almost completely withered))
Herbicidal effect grade, C: Monochoria vaginalis (Monochoria vaginalis): 2 (Herbicidal ratio of 20% or higher and lower than 40%)
herbicidal effect on D (Leptochloa chinensis), grade 0-5 (Leptochloa chinensis): 5 (Herbicidal ratio of 90% or more (almost completely withered))
c (corn) effect on crop grade (corn): 4 (Herbicidal ratio of 70% or higher and lower than 90%)
herbicidal effect on E, grade 0-5 (Cyperus difformis): 5 (Herbicidal ratio of 90% or more (almost completely withered))
K: Lolium multiflorum Lam., herbicidal effect grade (Lolium multiflorum Lam.): 5 (Herbicidal ratio of 90% or more (almost completely withered))
f (beet) effect on crop grade (beet): 4 (Herbicidal ratio of 70% or higher and lower than 90%)
d (soybean) effect on crop grade (soybean): 0 (Herbicidal ratio of 5% or lower (almost no effect))
Herbicidal effect grade, A: Echinochloa oryzacola Vasing. [1]: 5 (Herbicidal ratio of 90% or more (almost completely withered))

CON=C(C)CC1CC(OC(=O)CCC2CCCCC2)=C(c2c(C)cc(C)cc2C)C1=O (stereo not shown) [1-035]
N (Amaranthus retroflexus) herbicidal effect grade (Amaranthus retroflexus): 5 (Herbicidal ratio of 90% or more (almost completely withered))
M (Abutilon theophrasti) herbicidal effect grade (Abutilon theophrasti): 5 (Herbicidal ratio of 90% or more (almost completely withered))
F (Digitaria ciliaris) herbicidal effect grade (Digitaria ciliaris): 5 (Herbicidal ratio of 90% or more (almost completely withered))
Herbicidal effect grade, C: Monochoria vaginalis (Monochoria vaginalis): 2 (Herbicidal ratio of 20% or higher and lower than 40%)
herbicidal effect on D (Leptochloa chinensis), grade 0-5 (Leptochloa chinensis): 5 (Herbicidal ratio of 90% or more (almost completely withered))
c (corn) effect on crop grade (corn): 4 (Herbicidal ratio of 70% or higher and lower than 90%)
herbicidal effect on E, grade 0-5 (Cyperus difformis): 5 (Herbicidal ratio of 90% or more (almost completely withered))
K: Lolium multiflorum Lam., herbicidal effect grade (Lolium multiflorum Lam.): 5 (Herbicidal ratio of 90% or more (almost completely withered))
f (beet) effect on crop grade (beet): 3 (Herbicidal ratio of 40% or higher and lower than 70%)
d (soybean) effect on crop grade (soybean): 0 (Herbicidal ratio of 5% or lower (almost no effect))
Herbicidal effect grade, A: Echinochloa oryzacola Vasing. [1]: 5 (Herbicidal ratio of 90% or more (almost completely withered))

CON=C(CC1CC(OC(=O)COc2ccccc2)=C(c2c(C)cc(C)cc2C)C1=O)C1CC1 (stereo not shown) [1-063]
N (Amaranthus retroflexus) herbicidal effect grade (Amaranthus retroflexus): 0 (Herbicidal ratio of 5% or lower (almost no effect))
M (Abutilon theophrasti) herbicidal effect grade (Abutilon theophrasti): 2 (Herbicidal ratio of 20% or higher and lower than 40%)
F (Digitaria ciliaris) herbicidal effect grade (Digitaria ciliaris): 5 (Herbicidal ratio of 90% or more (almost completely withered))
Herbicidal effect grade, C: Monochoria vaginalis (Monochoria vaginalis): 0 (Herbicidal ratio of 5% or lower (almost no effect))
herbicidal effect on D (Leptochloa chinensis), grade 0-5 (Leptochloa chinensis): 5 (Herbicidal ratio of 90% or more (almost completely withered))
c (corn) effect on crop grade (corn): 4 (Herbicidal ratio of 70% or higher and lower than 90%)
herbicidal effect on E, grade 0-5 (Cyperus difformis): 5 (Herbicidal ratio of 90% or more (almost completely withered))
K: Lolium multiflorum Lam., herbicidal effect grade (Lolium multiflorum Lam.): 5 (Herbicidal ratio of 90% or more (almost completely withered))
d (soybean) effect on crop grade (soybean): 0 (Herbicidal ratio of 5% or lower (almost no effect))
Herbicidal effect grade, A: Echinochloa oryzacola Vasing. [1]: 4 (Herbicidal ratio of 70% or higher and lower than 90%)

CON=C(C)CC1CC(OC(=O)COc2ccc(F)cc2)=C(c2c(C)cc(C)cc2C)C1=O (stereo not shown) [1-073]
N (Amaranthus retroflexus) herbicidal effect grade (Amaranthus retroflexus): 5 (Herbicidal ratio of 90% or more (almost completely withered))
M (Abutilon theophrasti) herbicidal effect grade (Abutilon theophrasti): 5 (Herbicidal ratio of 90% or more (almost completely withered))
F (Digitaria ciliaris) herbicidal effect grade (Digitaria ciliaris): 5 (Herbicidal ratio of 90% or more (almost completely withered))
Herbicidal effect grade, C: Monochoria vaginalis (Monochoria vaginalis): 1 (Herbicidal ratio of 5% or higher and lower than 20%)
herbicidal effect on D (Leptochloa chinensis), grade 0-5 (Leptochloa chinensis): 5 (Herbicidal ratio of 90% or more (almost completely withered))
c (corn) effect on crop grade (corn): 4 (Herbicidal ratio of 70% or higher and lower than 90%)
herbicidal effect on E, grade 0-5 (Cyperus difformis): 5 (Herbicidal ratio of 90% or more (almost completely withered))
K: Lolium multiflorum Lam., herbicidal effect (criteria 0-5) (Lolium multiflorum Lam.): 5 (Herbicidal ratio of 90% or more (almost completely withered))
d (soybean) effect on crop grade (soybean): 0 (Herbicidal ratio of 5% or lower (almost no effect))
Herbicidal effect grade, A: Echinochloa oryzacola Vasing. [1]: 5 (Herbicidal ratio of 90% or more (almost completely withered))

CC(=O)CC1CC(O)=C(c2c(C)cc(Oc3ccccc3)cc2C)C1=O (stereo not shown) [7-014]
Herbicidal effect grade, N: Amaranthus retroflexus (Amaranthus retroflexus): 0 (Herbicidal ratio of 5% or lower (almost no effect))
Herbicidal effect grade, M: Abutilon theophrasti (Abutilon theophrasti): 0 (Herbicidal ratio of 5% or lower (almost no effect))
Herbicidal effect grade, F: Digitaria ciliaris (Digitaria ciliaris): 3 (Herbicidal ratio of 40% or higher and lower than 70%)
herbicidal effect on D (Leptochloa chinensis), grade 0-5 (Leptochloa chinensis): 5 (Herbicidal ratio of 90% or more (almost completely withered))
Effect on crop grade, c: corn (corn): 0 (Herbicidal ratio of 5% or lower (almost no effect))
herbicidal effect on E, grade 0-5 (Cyperus difformis): 2 (Herbicidal ratio of 20% or higher and lower than 40%)
K: Lolium multiflorum Lam., herbicidal effect (criteria of Test Example 1) (Lolium multiflorum Lam.): 5 (Herbicidal ratio of 90% or more (almost completely withered))
Effect on crop grade, f: beet (beet): 0 (Herbicidal ratio of 5% or lower (almost no effect))
Effect on crop grade, d: soybean (soybean): 0 (Herbicidal ratio of 5% or lower (almost no effect))

CC(=O)CC1CC(O)=C(c2c(C)cc(-c3ccc(OC(F)(F)F)cc3)cc2C)C1=O (stereo not shown) [7-016]
Herbicidal effect grade, N: Amaranthus retroflexus (Amaranthus retroflexus): 0 (Herbicidal ratio of 5% or lower (almost no effect))
Herbicidal effect grade, M: Abutilon theophrasti (Abutilon theophrasti): 0 (Herbicidal ratio of 5% or lower (almost no effect))
Herbicidal effect grade, F: Digitaria ciliaris (Digitaria ciliaris): 3 (Herbicidal ratio of 40% or higher and lower than 70%)
herbicidal effect on D (Leptochloa chinensis), grade 0-5 (Leptochloa chinensis): 5 (Herbicidal ratio of 90% or more (almost completely withered))
Effect on crop grade, c: corn (corn): 0 (Herbicidal ratio of 5% or lower (almost no effect))
herbicidal effect on E, grade 0-5 (Cyperus difformis): 0 (Herbicidal ratio of 5% or lower (almost no effect))
K: Lolium multiflorum Lam., herbicidal effect (criteria of Test Example 1) (Lolium multiflorum Lam.): 0 (Herbicidal ratio of 5% or lower (almost no effect))
Effect on crop grade, f: beet (beet): 0 (Herbicidal ratio of 5% or lower (almost no effect))
Effect on crop grade, d: soybean (soybean): 0 (Herbicidal ratio of 5% or lower (almost no effect))

CC(=O)CC1CC(O)=C(c2c(C)cc(-c3ncccn3)cc2C)C1=O (stereo not shown) [7-017]
Herbicidal effect grade, N: Amaranthus retroflexus (Amaranthus retroflexus): 0 (Herbicidal ratio of 5% or lower (almost no effect))
Herbicidal effect grade, M: Abutilon theophrasti (Abutilon theophrasti): 0 (Herbicidal ratio of 5% or lower (almost no effect))
Herbicidal effect grade, F: Digitaria ciliaris (Digitaria ciliaris): 4 (Herbicidal ratio of 70% or higher and lower than 90%)
herbicidal effect on D (Leptochloa chinensis), grade 0-5 (Leptochloa chinensis): 5 (Herbicidal ratio of 90% or more (almost completely withered))
Effect on crop grade, c: corn (corn): 0 (Herbicidal ratio of 5% or lower (almost no effect))
herbicidal effect on E, grade 0-5 (Cyperus difformis): 4 (Herbicidal ratio of 70% or higher and lower than 90%)
K: Lolium multiflorum Lam., herbicidal effect (criteria of Test Example 1) (Lolium multiflorum Lam.): 3 (Herbicidal ratio of 40% or higher and lower than 70%)
Effect on crop grade, f: beet (beet): 0 (Herbicidal ratio of 5% or lower (almost no effect))
Effect on crop grade, d: soybean (soybean): 0 (Herbicidal ratio of 5% or lower (almost no effect))
